Measured values from US20160045505A1, “COMPOUNDS AND COMPOSITIONS FOR THE TREATMENT OF PARASITIC DISEASES” (NOVARTIS AG, priority 2013, published 2016).
Read-outs that look alike come from different tables or passages of the source.

Columns and labels:
[1] = tested on: L. donovani HU3 strain in mouse peritoneal macrophages; test: Assay for proliferation of Leishmania parasites in infected mouse peritoneal macrophages (SybrGreen staining, high-content imaging, 5 days); format: cell-based, Leishmania donovani; details: Leishmania donovani, Peritoneal macrophage, L. donovani in mouse peritoneal macrophages, read-out: L. donovani Macrophage EC50
[2] = tested on: Trypanosoma cruzi amastigotes (Tulahuen strain expressing Lac-Z) cultured in 3T3 fibroblast cells; test: microbe, parasite or virus in culture; format: cell-based; details: Trypanosoma cruzi, TULAHUEN, Fibroblast, T. cruzi amastigotes in 3T3 fibroblast cells, read-out: T cruzi EC50
[3] = tested on: Trypanosoma brucei Lister 427 strain, bloodstream form; test: Assay for proliferation of kinetoplastid parasite Trypanosoma brucei (Cell Titer Glo, 48 hours); format: cell-based; details: Trypanosoma brucei, T. brucei Lister 427 bloodstream form, read-out: T. brucei EC50
How it was run: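 Bloodstream-form T. brucei Lister 427 in HMI-9 medium was exposed to compound (DMSO vehicle) for 48 hours at 37° C, 5% CO2. Parasite growth was read as ATP by CellTiter-Glo luminescence, with EC50 calculated from percent inhibition.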

[4] = tested on: Leishmania donovani axenic amastigote parasites; test: Leishmania donovani axenic amastigote proliferation assay (Cell TiterGlo luminescence, 2 day incubation); format: cell-based; details: Leishmania donovani, read-out: L. donovani amastigotes EC50
[5] = axenic amastigotes, inhibition of proliferation

Row | SMILES | EC50 ([1]; inhibition of proliferation) [nM] | EC50 ([2]; inhibition of proliferation) [nM] | EC50 ([3]; inhibition of proliferation) [nM] | EC50 [4, 5] [nM] | EC50 [1] [nM] | EC50 [2] [nM] | EC50 [3] [nM] | EC50 ([4]; L. donovani axenic amastigotes) [nM]
1 | Cc1ccccc1-c1cnc2nc(-c3cc(NC(=O)N4CCCC4)ccc3F)cn2c1 [Compound 356] | 332 | 16 | 18 | 88 |  |  |  | 
2 | Cc1nc(C)c(C(=O)Nc2ccc(F)c(-c3cn4cc(-c5ccc(OCCN6CCOCC6)cc5)cnc4n3)c2)o1 [Compound 359] | 4860 | 405 | 1500 | 450 |  |  |  | 
3 | Cc1nc(C)c(C(=O)Nc2ccc(F)c(-c3cn4cc(-c5ccc(CN(C)C)cc5)cnc4n3)c2)o1 [Compound 360] | 450 | 252 | 116 | 3370 |  |  |  | 
4 | Cc1nc(C)c(C(=O)Nc2ccc(F)c(-c3cn4cc(-c5ccc(S(C)(=O)=O)cc5F)cnc4n3)c2)o1 [Compound 362] | > 34400 | > 20000 | 345 | 403 |  |  |  | 
5 | Cc1nc(C)c(C(=O)Nc2ccc(F)c(-c3cn4cc(-c5ccn(C)n5)cnc4n3)c2)o1 [Compound 363] | 136 | 45 | 58 | 77 |  |  |  | 
6 | Cc1nc(C)c(C(=O)Nc2ccc(F)c(-c3cn4cc(-c5cccn5C(=O)OC(C)(C)C)cnc4n3)c2)o1 [Compound 364] | 155 | 220 | 178 | 279 |  |  |  | 
7 | Cc1nc(C)c(C(=O)Nc2ccc(F)c(-c3cn4cc(-c5c(C)noc5C)cnc4n3)c2)o1 [Compound 366] | 339 | 443 | 338 | 849 |  |  |  | 
8 | Cc1nc(C)c(C(=O)Nc2ccc(F)c(-c3cn4cc(-c5cccc(N6CCN(C(=O)OC(C)(C)C)CC6)n5)cnc4n3)c2)o1 [Compound 368] | 905 | 135 | 498 | 463 |  |  |  | 
9 | Cc1nc(C)c(C(=O)Nc2ccc(F)c(-c3cn4cc(-c5ccn[nH]5)cnc4n3)c2)o1 [Compound 369] | 294 | 988 | 154 | 282 |  |  |  | 
10 | Cc1nc(C)c(C(=O)Nc2ccc(F)c(-c3cn4cc(-c5cncn5C)cnc4n3)c2)o1 [Compound 370] | 3610 | 7370 | 386 | 5470 |  |  |  | 
11 | Cc1nc(C)c(C(=O)Nc2ccc(F)c(-c3cn4cc(C5=CCCO5)cnc4n3)c2)o1 [Compound 371] | 2300 | 465 | 1470 | 1650 |  |  |  | 
12 | Cc1nc(C)c(C(=O)Nc2ccc(F)c(-c3cn4cc(-c5ccccc5N)cnc4n3)c2)o1 [Compound 372] |  |  |  |  | 242 | 95 | 80 | 221
13 | Cc1nc(C)c(C(=O)Nc2ccc(F)c(-c3cn4cc(C5=CCCCO5)cnc4n3)c2)o1 [Compound 373] |  |  |  |  | 134 | 84 | 44 | 115
14 | Cc1nc(C)c(C(=O)Nc2ccc(F)c(-c3cn4cc(-c5cscn5)cnc4n3)c2)o1 [Compound 374] |  |  |  |  | 43 | 41 | 425 | 40
15 | Cc1nc(C)c(C(=O)Nc2ccc(F)c(-c3cn4cc(C5=CCCN(C)C5)cnc4n3)c2)o1 [Compound 375] |  |  |  |  | 499 | 303 | 135 | 4300
16 | Cc1cccc(-c2cnc3nc(-c4cc(NC(=O)c5oc(C)nc5C)ccc4F)cn3c2)n1 [Compound 376] |  |  |  |  | 256 | 96 | 158 | 85
17 | Cc1nc(C)c(C(=O)Nc2ccc(F)c(-c3cn4cc(-c5ccncc5)cnc4n3)c2)o1 [Compound 377] |  |  |  |  | 144 | 137 | 42 | 75
18 | Cc1nc(C)c(C(=O)Nc2ccc(F)c(-c3cn4cc(C5=CCN(Cc6ccccc6)CC5)cnc4n3)c2)o1 [Compound 378] |  |  |  |  | 134 | 47 | 38 | 543
19 | Cc1nc(C)c(C(=O)Nc2ccc(F)c(-c3cn4cc(C5=CC(C)(C)OC(C)(C)C5)cnc4n3)c2)o1 [Compound 379] |  |  |  |  | 1680 | 683 | 1430 | 528
20 | Cc1nc(C)c(C(=O)Nc2ccc(F)c(-c3cn4cc(-c5ccc(NC(C)C)cc5)cnc4n3)c2)o1 [Compound 380] |  |  |  |  | 33900 | 14000 | 30700 | 24500
21 | CCN(C)C(=O)Nc1ccc(F)c(-c2cn3cc(-c4ccccn4)cnc3n2)c1 [Compound 381] |  |  |  |  | 1440 | 445 | 482 | 392
